From US7459277B2, “Mammalian T1R3 sweet taste receptors” (The Regents of the University of California, priority 2003, dated 2008)

What was measured:
HEK-293 cells = assay: Ca-imaging, receptor independent rises in [Ca2+]i; type: cell-based, human; settings: high concentrations of sugar
Protocol: Modified HEK-293 cells (PEAK^rapid cells; Edge BioSystems, Md.) were grown, transfected with […] and promiscuous G-proteins and assayed for functional responses to tastants by Ca-imaging essentially as described previously (Nelson, G. et al., Cell, 106, 381-390 (2001)). Minor differences in FURA-2 loading and Ca-imaging included using 199(H) Medium (Biosource) containing 0.1% BSA, 100 μM EGTA and 200 μM CaCl2 as assay buffer as well as reducing the time allowed for FURA-AM ester cleavage to 10 minutes. The imaging system was an Olympus IX50 microscope equipped with a 10×/0.5 N.A. fluor objective (Zeiss), the TILL imaging system (TILL Photonics GmbH), and a cooled CCD camera. Acquisition and analysis of fluorescence images used TILL-Vision software. To optimize coupling of […]-responses to changes in [Ca^2+]i, C-terminal residues of human Gα16 (Offermanns, S., and Simon, M. I., J Biol Chem, 270, 15175-15180 (1995)) were replaced with the corresponding residues from Gz (Mody, S. M. et al., Mol Pharmacol, 57, 13-23 (2000)), gustducin (McLaughlin, S. K. et al., Nature, 357, 563-569 (1992)) or Gαi2. […] Cell lines stably expressing T1R3 and Ggust-25 were established using puromycin and Zeocin (Invitrogen) selection. Three independent lines expressing T1R3 and Ggust-25 were used to examine the specificity and dose response of the T1R3 receptor.

T1R1+3 = settings: cited from earlier work; for activation of T1R1+3: psychophysically relevant concentrations
T1R knockout mice [1] = assay: Brief access taste test (lick rate relative to control) in wild-type and T1R knockout mice; type: in vivo, mouse
Description: Two complementary strategies were used to assay the taste responses of the genetically modified mice. First, we recorded tastant-induced action potentials from one of the major nerves innervating taste receptor cells of the tongue (chorda tympani). This physiological assay monitors the activity of the taste system at the periphery, and provides a measure of taste receptor cell function. Second, we examined taste behavior by measuring taste-choices in standard long-term two-bottle intake preference assays, or by direct counting of immediate licking responses in a multi-channel gustometer (Glendinning, J. I. et al., Chem Senses, 27, 461-474 (2002); Zhang, Y. et al., Cell, 112, 293-301 (2003); see Experimental Procedures). This second method relies on very short exposures to tastants (5 s events over a total of 30 min versus 48 hrs for two-bottle preference assays), and therefore has the great advantage of minimizing the impact of other sensory inputs, and post-ingestive and learning effects from the assay.
Taste behavior was assayed using a short term assay that directly measures taste preferences by counting immediate licking responses in a multi-channel gustometer (Davis MS160-Mouse gustometer; DiLog Instruments, Tallahassee, Fla.). Mice were trained and tested as described previously (Zhang, Y. et al., Cell, 112, 293-301 (2003)). Individual mice were placed in the gustometer for 30 minutes, and stimuli were presented in random order for 5 s trials that were initiated by the mouse licking the stimulus spout. […] Data points represent the mean rate that mice licked a tastant relative to their sampling of an appropriate control tastant (ratio defined as lick rate relative to control); lick suppression is defined as 1 minus the lick rate relative to control.

mouse T1R3 GPCR = biological target: T1, mouse T1R3 GPCR (Mus musculus, UniProt Q925D8); assay: Ca-imaging of HEK-293 cells expressing T1R3 and Ggust-25; type: cell-based; settings: for T1R3 and Ggust-25 dependent responses: >300 mM, three independent stable lines
T1 construct: expressed in transfected cells
T1 sequence (Q925D8 21-858): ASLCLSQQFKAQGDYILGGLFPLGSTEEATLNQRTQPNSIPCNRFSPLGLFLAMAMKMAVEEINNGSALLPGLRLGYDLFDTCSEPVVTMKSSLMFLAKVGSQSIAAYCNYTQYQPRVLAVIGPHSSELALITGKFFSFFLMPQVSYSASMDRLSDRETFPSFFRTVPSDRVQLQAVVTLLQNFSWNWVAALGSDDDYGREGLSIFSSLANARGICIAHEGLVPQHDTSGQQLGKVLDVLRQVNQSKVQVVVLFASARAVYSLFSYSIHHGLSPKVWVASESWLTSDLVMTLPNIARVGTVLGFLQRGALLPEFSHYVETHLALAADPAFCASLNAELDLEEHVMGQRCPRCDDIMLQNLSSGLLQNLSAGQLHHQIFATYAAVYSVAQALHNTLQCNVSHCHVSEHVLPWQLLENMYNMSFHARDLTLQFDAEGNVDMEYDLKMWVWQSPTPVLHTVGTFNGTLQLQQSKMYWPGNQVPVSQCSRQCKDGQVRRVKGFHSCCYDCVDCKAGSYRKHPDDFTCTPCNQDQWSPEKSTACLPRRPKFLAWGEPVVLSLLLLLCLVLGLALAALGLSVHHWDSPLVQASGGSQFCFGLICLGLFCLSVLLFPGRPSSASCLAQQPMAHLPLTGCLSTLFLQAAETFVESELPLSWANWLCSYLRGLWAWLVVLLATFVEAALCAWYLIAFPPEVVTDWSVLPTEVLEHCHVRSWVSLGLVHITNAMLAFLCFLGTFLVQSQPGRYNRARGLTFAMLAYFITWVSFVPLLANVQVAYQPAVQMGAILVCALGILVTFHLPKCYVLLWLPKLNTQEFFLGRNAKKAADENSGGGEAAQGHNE

T1R2+3 = biological target: T2, T1R2+3 (Mus musculus, UniProt Q925D8+Q925I4); assay: Ca-imaging of HEK-293 cells co-transfected with T1R2 plus T1R3 and Ggust-25; type: cell-based; settings: control cells expressing T1R2+3
T2 construct: expressed in transfected cells; host or cells: modified HEK-293 cells (PEAKrapid)
T2 sequence (Q925I4 20-843): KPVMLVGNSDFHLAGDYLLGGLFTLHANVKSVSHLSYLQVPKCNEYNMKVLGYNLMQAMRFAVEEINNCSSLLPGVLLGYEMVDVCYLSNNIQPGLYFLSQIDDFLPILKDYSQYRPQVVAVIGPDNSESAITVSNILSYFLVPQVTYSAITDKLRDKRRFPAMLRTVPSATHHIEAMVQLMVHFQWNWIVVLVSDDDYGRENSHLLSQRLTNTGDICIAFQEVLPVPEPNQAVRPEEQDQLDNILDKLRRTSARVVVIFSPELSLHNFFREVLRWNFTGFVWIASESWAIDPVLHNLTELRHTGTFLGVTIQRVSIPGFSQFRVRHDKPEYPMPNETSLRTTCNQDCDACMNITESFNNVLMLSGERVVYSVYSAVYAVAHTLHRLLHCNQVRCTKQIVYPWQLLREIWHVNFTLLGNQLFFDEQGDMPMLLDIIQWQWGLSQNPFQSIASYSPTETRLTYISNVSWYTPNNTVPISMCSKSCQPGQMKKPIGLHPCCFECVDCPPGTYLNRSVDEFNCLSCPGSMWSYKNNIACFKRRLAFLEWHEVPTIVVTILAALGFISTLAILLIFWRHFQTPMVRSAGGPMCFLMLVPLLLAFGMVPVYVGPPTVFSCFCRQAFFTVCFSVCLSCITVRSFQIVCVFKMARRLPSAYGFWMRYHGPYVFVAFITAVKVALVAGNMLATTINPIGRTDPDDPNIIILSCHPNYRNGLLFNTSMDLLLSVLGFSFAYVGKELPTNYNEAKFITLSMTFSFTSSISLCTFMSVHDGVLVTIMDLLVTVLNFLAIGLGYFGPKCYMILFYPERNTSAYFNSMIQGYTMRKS
T2 sequence (Q925D8 21-858): T1 sequence (Q925D8 21-858)

T1R knockout mice [2] = assay: Chorda tympani nerve recordings in wild-type and T1R knockout mice; type: in vivo, mouse; settings: T1R3 KO mice; salt effects minimized
[3] = T1R1 and T1R3 knockout animals, L-Asp 100 mM, AP4 30 mM

OC[C@H]1O[C@H](O[C@H]2O[C@H](CO)[C@@H](O)[C@H](O)[C@H]2O)[C@H](O)[C@@H](O)[C@@H]1O [trehalose]
receptor independent rises in [Ca2+]i (HEK-293 cells): significant receptor independent rises in [Ca^2+]i

Nc1nc2c(ncn2[C@@H]2O[C@H](COP(=O)(O)O)[C@@H](O)[C@H]2O)c(=O)[nH]1 [GMP]
enhancement of T1R1+3 activity (T1R1+3): reliably enhanced

NC(CCP(=O)(O)O)C(=O)O (stereo not drawn) [AP4]
taste preference relative to water (T1R knockout mice [1]; [3]): complete loss in preference | activation of T1R1+3 (T1R1+3): activated

OC[C@H]1O[C@H](O[C@H]2[C@H](O)[C@@H](O)C(O)O[C@@H]2CO)[C@H](O)[C@@H](O)[C@@H]1O (mixture of isomers) [maltose]
taste preference relative to water (T1R knockout mice [1]; T1R2 and T1R3 knockout animals): residual responses | T1R3 and Ggust-25 dependent responses (mouse T1R3 GPCR): dose dependent responses

O=C[C@H](O)[C@@H](O)[C@@H](O)[C@H](O)CO [galactose]
receptor independent rises in [Ca2+]i (HEK-293 cells): significant receptor independent rises in [Ca^2+]i

O=C(CO)[C@@H](O)[C@H](O)[C@H](O)CO [fructose]
receptor independent rises in [Ca2+]i (HEK-293 cells): significant receptor independent rises in [Ca^2+]i

O=C1NS(=O)(=O)c2ccccc21 [saccharin]
[Ca2+]i response (T1R2+3; 30 mM saccharin): respond robustly | [Ca2+]i response (mouse T1R3 GPCR; 300 mM saccharin): No responses were detected

OC[C@H]1O[C@@](CO)(O[C@H]2O[C@H](CO)[C@@H](O)[C@H](O)[C@H]2O)[C@@H](O)[C@@H]1O [sucrose]
taste preference relative to water (T1R knockout mice [1]; T1R2 and T1R3 knockout animals): residual responses | [Ca2+]i response (T1R2+3; 300 mM sucrose): respond robustly | increases in [Ca2+]i (FURA-2) (mouse T1R3 GPCR; 500 mM sucrose): increases in [Ca^2+]i | T1R3 and Ggust-25 dependent responses (mouse T1R3 GPCR): dose dependent responses

N[C@@H](CC(=O)O)C(=O)O [L-Asp, aspartic acid]
taste preference relative to water (T1R knockout mice [1]; [3]): complete loss in preference | behavioral attraction (T1R knockout mice [1]; T1R3 KO mice, salt effects minimized): dramatic loss of behavioral attraction | activation of T1R1+3 (T1R1+3): activated | physiological (nerve) responses (T1R knockout mice [2]): profound corresponding deficit in physiological responses
